Laboratory results taken from PubChem BioAssay AID2060499 (Molecular Pharmacology Branch, DTP, NCI, 2025).

System: 777334-354-R2-J4-PDC tumor spheroids with HUVEC/MSC, viability
Assay: Anticancer human tumor 777334-354-R2-J4-PDC patient-derived pancreatic adenocarcinoma cell line growth inhibition [GQUAD]
Conditions: for IC50: curve of first compound; for viability, T/C: stronger effect = lower value
Procedure, shortened: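 Viability of tumor cells grown as complex spheroids with endothelial and stromal cells, exposed to drug combinations. Top concentration at or near clinical Cmax (else 10 microM), diluted in half-log increments.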

[1] = second compound 0.0316 µM, first compound 0.0316 µM
[2] = second compound 0.0316 µM, first compound 0.1 µM
[3] = second compound 0.0316 µM, first compound 0.316 µM
[4] = second compound 0.0316 µM, first compound 1 µM
[5] = second compound 0.0316 µM, first compound 3.16 µM
[6] = second compound 0.0316 µM, first compound 10 µM
[7] = second compound 0.1 µM, first compound 0.0316 µM
[8] = second compound 0.1 µM, first compound 0.1 µM
[9] = second compound 0.1 µM, first compound 0.316 µM
[10] = second compound 0.1 µM, first compound 1 µM
[11] = second compound 0.1 µM, first compound 3.16 µM
[12] = second compound 0.1 µM, first compound 10 µM
[13] = second compound 0.316 µM, first compound 0.0316 µM
[14] = second compound 0.316 µM, first compound 0.1 µM
[15] = second compound 0.316 µM, first compound 0.316 µM
[16] = second compound 0.316 µM, first compound 1 µM
[17] = second compound 0.316 µM, first compound 3.16 µM
[18] = second compound 0.316 µM, first compound 10 µM
[19] = second compound 1 µM, first compound 0.0316 µM
[20] = second compound 1 µM, first compound 0.1 µM
[21] = second compound 1 µM, first compound 0.316 µM
[22] = second compound 1 µM, first compound 1 µM
[23] = second compound 1 µM, first compound 3.16 µM
[24] = second compound 1 µM, first compound 10 µM
[25] = second compound 3.16 µM, first compound 0.0316 µM
[26] = second compound 3.16 µM, first compound 0.1 µM
[27] = second compound 3.16 µM, first compound 0.316 µM
[28] = second compound 3.16 µM, first compound 1 µM
[29] = second compound 3.16 µM, first compound 3.16 µM
[30] = second compound 3.16 µM, first compound 10 µM
[31] = second compound 10 µM, first compound 0.0316 µM
[32] = second compound 10 µM, first compound 0.1 µM
[33] = second compound 10 µM, first compound 0.316 µM
[34] = second compound 10 µM, first compound 1 µM
[35] = second compound 10 µM, first compound 3.16 µM
[36] = second compound 10 µM, first compound 10 µM
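Further: spheroids exposed to compounds for 7 days before readout.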

COc1ncnc(C2CC2)c1-c1ncc2cnn(Cc3ccc(-c4nc(C(F)(F)F)cn4C(C)C)cc3)c2n1 + CN(C)c1ccc(Nc2c3ccc(NC(=O)CCN4CCCC4)cc3nc3cc(NC(=O)CCN4CCCC4)ccc23)cc1
IC50 (second compound 0.0316 µM): > 10000 nM | IC50 (second compound 0.1 µM): > 10000 nM | IC50 (second compound 0.316 µM): > 10000 nM | IC50 (second compound 1 µM): > 10000 nM | IC50 (second compound 3.16 µM): > 10000 nM | IC50 (second compound 10 µM): > 10000 nM | viability, T/C [1]: 103% | viability, T/C [2]: 94.8% | viability, T/C [3]: 108% | viability, T/C [4]: 95.7% | viability, T/C [5]: 105% | viability, T/C [6]: 111% | viability, T/C [7]: 104% | viability, T/C [8]: 91.1% | viability, T/C [9]: 94.4% | viability, T/C [10]: 84.5% | viability, T/C [11]: 100% | viability, T/C [12]: 98.3% | viability, T/C [13]: 97.7% | viability, T/C [14]: 94.5% | viability, T/C [15]: 94% | viability, T/C [16]: 95% | viability, T/C [17]: 109% | viability, T/C [18]: 105% | viability, T/C [19]: 96.2% | viability, T/C [20]: 101% | viability, T/C [21]: 94.5% | viability, T/C [22]: 93.8% | viability, T/C [23]: 106% | viability, T/C [24]: 96.8% | viability, T/C [25]: 84.1% | viability, T/C [26]: 85.1% | viability, T/C [27]: 92.6% | viability, T/C [28]: 94.2% | viability, T/C [29]: 97.2% | viability, T/C [30]: 91.9% | viability, T/C [31]: 81.2% | viability, T/C [32]: 73.5% | viability, T/C [33]: 80.1% | viability, T/C [34]: 75.6% | viability, T/C [35]: 70.6% | viability, T/C [36]: 58.4%

CC(C)n1c(=O)n(C)c2cnc3cc(F)c(-c4ccc(OCCCN5CCCCC5)nc4)cc3c21 + Cc1[nH]c2ccc(F)cc2c1-c1nc2c3cccnc3c3ncccc3c2[nH]1
IC50 (second compound 0.0316 µM): > 10000 nM | IC50 (second compound 0.1 µM): > 10000 nM | IC50 (second compound 0.316 µM): > 10000 nM | IC50 (second compound 1 µM): > 10000 nM | IC50 (second compound 3.16 µM): < 31.6 nM | IC50 (second compound 10 µM): < 31.6 nM | viability, T/C [1]: 106% | viability, T/C [2]: 108% | viability, T/C [3]: 113% | viability, T/C [4]: 115% | viability, T/C [5]: 115% | viability, T/C [6]: 96% | viability, T/C [7]: 105% | viability, T/C [8]: 89.5% | viability, T/C [9]: 131% | viability, T/C [10]: 103% | viability, T/C [11]: 118% | viability, T/C [12]: 98% | viability, T/C [13]: 101% | viability, T/C [14]: 99.5% | viability, T/C [15]: 90.3% | viability, T/C [16]: 110% | viability, T/C [17]: 99.1% | viability, T/C [18]: 93.5% | viability, T/C [19]: 90.8% | viability, T/C [20]: 84.7% | viability, T/C [21]: 90.6% | viability, T/C [22]: 101% | viability, T/C [23]: 93.8% | viability, T/C [24]: 70.8% | viability, T/C [25]: 30.8% | viability, T/C [26]: 50.4% | viability, T/C [27]: 40% | viability, T/C [28]: 33.1% | viability, T/C [29]: 28.5% | viability, T/C [30]: 19.9% | viability, T/C [31]: 28.7% | viability, T/C [32]: 25.2% | viability, T/C [33]: 41.9% | viability, T/C [34]: 28.4% | viability, T/C [35]: 27.1% | viability, T/C [36]: 13.5%

CC1COCCN1c1cc(-c2ccnn2C)c2ccnc(-c3ccn[nH]3)c2n1 (stereo unspecified) + Cc1[nH]c2ccc(F)cc2c1-c1nc2c3cccnc3c3ncccc3c2[nH]1
IC50 (second compound 0.0316 µM): 894 nM | IC50 (second compound 0.1 µM): 834 nM | IC50 (second compound 0.316 µM): 483 nM | IC50 (second compound 1 µM): 479 nM | IC50 (second compound 3.16 µM): < 31.6 nM | IC50 (second compound 10 µM): < 31.6 nM | viability, T/C [1]: 91.3% | viability, T/C [2]: 74.2% | viability, T/C [3]: 62.4% | viability, T/C [4]: 44.4% | viability, T/C [5]: 44% | viability, T/C [6]: 31.1% | viability, T/C [7]: 93.7% | viability, T/C [8]: 67.1% | viability, T/C [9]: 63.5% | viability, T/C [10]: 46.4% | viability, T/C [11]: 41.5% | viability, T/C [12]: 29.4% | viability, T/C [13]: 90.9% | viability, T/C [14]: 79.6% | viability, T/C [15]: 48.7% | viability, T/C [16]: 46.6% | viability, T/C [17]: 39.5% | viability, T/C [18]: 29.7% | viability, T/C [19]: 68.7% | viability, T/C [20]: 65.2% | viability, T/C [21]: 53.2% | viability, T/C [22]: 39.9% | viability, T/C [23]: 35.6% | viability, T/C [24]: 19.1% | viability, T/C [25]: 26.4% | viability, T/C [26]: 23.9% | viability, T/C [27]: 18.9% | viability, T/C [28]: 11.1% | viability, T/C [29]: 8.41% | viability, T/C [30]: 8.24% | viability, T/C [31]: 33.5% | viability, T/C [32]: 19.5% | viability, T/C [33]: 14.9% | viability, T/C [34]: 11.7% | viability, T/C [35]: 12.7% | viability, T/C [36]: 11.6%
